What all share (experiment): DTP human tumour cell line panel, 48 h
In assay [1] the test system is 786-0 renal.
Assay [2] concerns ACHN renal.
The subject of assay [3] is CAKI-1 renal.
For assay [4], the system named is HOP-92 NSCLC.
The subject of assay [5] is MALME-3M melanoma.
The subject of assay [6] is MDA-MB-231 breast.
For assay [7], the system named is NCI-H226 lung.
Assay [8] relates to NCI-H23 lung.
The subject of assay [9] is OVCAR-3 ovarian.
Assay [10] has as its system RPMI-8226 leukemia.
Assay [11] relates to SK-OV-3 ovarian.
The subject of assay [12] is UO-31 renal.

Values joined by “and” are separate entries in the source; they are usually repeats but may differ in a detail not shown here. Equal entries are not always repeated.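 Five concentrations, 48 hours, 96-well plates. GI50 = concentration required for 50% inhibition of growth. At the TGI there is no net growth.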 Some results are limits rather than exact numbers.

One may read the TGI as the concentration giving total growth inhibition. Low readings indicate more potent growth arrest, high ones less potent growth arrest. In general, GI50 refers to the concentration that inhibits growth by half.

For the molecule `CCCCCCCCCCCC(=O)OC[C@@H](C[As](=O)(O)O)OC(=O)CCCCCCCCCCC`, the TGI stood at 26.5 µM in assay [1]; 10.4 µM in assay [2]; 23.8 µM in assay [3]; 4.44 µM in [4]; 8.84 µM in assay [5]; 15.4 µM in [6]. In addition, the TGI in assay [7] is 34.1 µM; in [8] it was 17.8 µM; in assay [9] it was 16.5 µM; in assay [10], more than 68.2 µM; in [11], 26.2 µM; in assay [12] it was 27.9 µM.
Regarding `Cc1ccc(S(=O)(=O)C2=C(C(C)C)N=NC2(C)C)cc1`, the TGI in [1] was more than 100 µM; in [2], more than 100 µM; in assay [3], more than 100 µM; in assay [4], 69.6 µM; in [6] it was more than 100 µM; in assay [7], more than 100 µM. The TGI in [8] is more than 100 µM; in [9], more than 100 µM; in assay [10] it was 53.8 µM; in [12], more than 100 µM.
Consider `COc1ccc2nc(-c3ccccc3)c(=O)[nH]c2c1`, for which the total growth inhibition concentration (TGI) in assay [1], in assay [2], in assay [3], in assay [4], in assay [5] and in assay [6] was more than 100 µM throughout. For the same molecule, the TGI in assay [7], in [8], in [9] and in [10] was more than 100 µM in each case.
With `O=C1C(Br)=CC2(C=C1Br)CCNC1=C2C(=O)c2ncccc2C1=O`, the TGI in assay [1] was 3.11 µM; in assay [2], 1.94 µM; in [3] it was 3.14 µM; in assay [4] it was 4.38 µM; in [5] it was 2.4 µM; in assay [6], 3.67 µM. Besides, the concentration for total growth inhibition (TGI) came to 3.54 µM in assay [7]; 1.65 µM in [8]; 4.56 µM in assay [9]; 2.46 µM in [10]; 5.8 µM in [11]; 2.35 µM in assay [12].
Consider `CC1(C)O[C@H]2OC(CO)C(N=[N+]=[N-])[C@H]2O1` (stereo not given in full), for which the TGI in assay [1], in assay [2], in assay [3], in [4], in [5] and in assay [6] was more than 100 µM each time. Further, the total growth inhibition concentration (TGI) in assay [8], in assay [9], in [10] and in [12] was more than 100 µM in each case.
For `N[C@H](Cc1ccc2oc3cc(=O)c4ccccc4c-3nc2c1)C(=O)O`, the TGI was more than 100 µM in assay [1]; more than 100 µM in [2]; more than 100 µM in assay [3]; more than 100 µM in assay [4]; 38.5 µM in [5]; more than 100 µM in assay [6]. The TGI in assay [7] is more than 100 µM; in [8] it was more than 100 µM; in assay [9], more than 100 µM; in [10], 83.8 µM; in [11], more than 100 µM; in [12], more than 100 µM.
Consider `C/C=C\C(CC(=O)NCC(=O)c1c[nH]c2ccccc12)CC(=O)OC` (stereo not given), for which the TGI in assay [1], in assay [2], in assay [3], in assay [4], in [5] and in assay [6] was more than 100 µM throughout. Further, the TGI in assay [8], in assay [9], in [10], in assay [11] and in assay [12] was more than 100 µM each time.
`COc1ccc(N2C(=O)C(=O)N(c3ccc(N=Nc4ccccc4)cc3)C2=S)cc1`: the TGI is 35.5 µM in assay [1]; 34.4 µM in [2]; 47.2 µM in [3]; 31.7 µM in assay [4]; 33.8 µM in [5]; 41.5 µM in assay [6]. For the same molecule, the total growth inhibition concentration (TGI) is 48.4 µM in assay [7]; 34.9 µM in assay [8]; more than 100 µM in assay [10]; 68.4 µM in assay [11]; 30.3 µM in [12].
Take `CC(NC(=O)c1c(O)[nH]c(=S)[nH]c1=O)c1ccc([N+](=O)[O-])cc1` (stereo not given): the TGI in assay [1], in assay [2], in assay [3], in [4], in assay [6] and in assay [7] was more than 100 µM each time. Besides, the TGI in assay [8], in assay [9], in [10], in [11] and in [12] was more than 100 µM each time.
As to `COC(=O)C1=C(OC)[C@H]2C#C/C=C\C#C[C@@H]3Nc4c(cc(O)c5c4C(=O)c4ccccc4C5=O)[C@]24O[C@@]34[C@H]1C`, the TGI was less than 0.01 µM in assay [1]; less than 0.01 µM in assay [2]; less than 0.01 µM in assay [3]; less than 0.01 µM in assay [4]; 0.103 µM in assay [5]; 0.0179 µM in [6]. In addition, the TGI in [7] is less than 0.01 µM; in assay [8] it was less than 0.01 µM; in assay [9] it was 0.113 µM; in assay [10] it was 0.0188 µM; in assay [12] it was less than 0.01 µM.
On to `CS(=O)(=O)N1CC(CCl)c2ccc(O)cc21` (stereo not given), for which the TGI in assay [1] was determined as 11.6 µM; in assay [2], 12.4 µM; in assay [3], 12.3 µM; in [4] it was 9.05 µM; in assay [5], 5 µM; in assay [6], 6.16 µM. Also, the TGI turned out to be 6.83 µM in assay [7]; 7.6 µM in assay [8]; 9.3 µM in assay [9]; 6.91 µM in assay [10]; 5.79 µM in assay [12].
With `CCC1CC(O)c2c(O)c3c(c(O)c2C1O)C(=O)c1cccc(O)c1C3=O` (stereo not given) (tested in a mixture with another compound), the concentration for total growth inhibition (TGI) in assay [1] was 0.758 µM and 1.22 µM; in assay [3] it was 0.0706 µM; in assay [5] it was 0.0547 µM; in [6], 0.164 µM and 0.404 µM; in assay [7] it was 0.0532 µM; in [8], 0.0795 µM and 0.186 µM. Besides, the TGI in [9] is 0.0721 µM and 0.0312 µM; in assay [10], 0.0663 µM; in assay [11], 5.7 µM; in assay [12] it was 0.038 µM. In addition, the figures for the GI50 in [6] and in assay [11] were 0.0118 µM and 0.0111 µM, respectively.
As to `COc1ccc(/C(Cl)=C(\C#N)c2ccc(OC)c(OC)c2)cc1OC`, the total growth inhibition concentration (TGI) in assay [1], in [2], in [3], in assay [4], in assay [6] and in assay [7] was more than 100 µM throughout. In addition, the TGI is more than 100 µM in assay [8], more than 100 µM in assay [9], 60.4 µM in assay [10] and more than 100 µM in [12].
On to `NCCCNCCCCN1CCOC1=O`, for which the total growth inhibition concentration (TGI) in assay [1], in [2], in assay [3], in [5], in assay [6] and in [7] was more than 100 µM throughout. The TGI in assay [8], in assay [9], in [10], in assay [11] and in [12] was more than 100 µM throughout.
With `S=C1NCCN1C(=S)Nc1ccccc1`, the TGI in assay [1], in assay [2], in assay [3], in assay [4], in assay [5] and in assay [6] was more than 100 µM throughout. In addition, the TGI in [7], in [8], in [9], in assay [11] and in assay [12] was more than 100 µM throughout.
Consider `CC1CC(Nc2ccc(Br)cc2)N(C(=O)c2ccc(Br)cc2)O1` (stereo not given), for which the TGI in assay [1], in [2], in [3], in [5], in [6] and in assay [7] was more than 10 µM each time. The total growth inhibition concentration (TGI) in assay [8], in assay [9], in assay [10], in assay [11] and in assay [12] was more than 10 µM each time.
In the case of `CC(=O)OCC1OC(n2c(C)c(N=Nc3ccc(Cl)cc3)c(C)c(C#N)c2=S)C(OC(C)=O)C(OC(C)=O)C1OC(C)=O` (stereo not given), the TGI in assay [1] was 42.4 µM; in [2] it was more than 100 µM; in assay [3], more than 100 µM; in assay [4], 20.2 µM; in assay [5], more than 100 µM; in assay [6] it was more than 100 µM. In addition, the concentration for total growth inhibition (TGI) in [8], in [9], in assay [10], in assay [11] and in [12] was more than 100 µM in each case.
Turning to `O=C1/C(=C\c2cccc(Oc3ccccc3)c2)S(=O)(=O)C(c2ccccc2)N1c1cccc(Cl)c1` (stereo not given), the TGI in assay [1], in assay [2], in [3], in assay [4], in assay [5] and in [6] was more than 100 µM throughout. In addition, the TGI in [8] is more than 100 µM; in [9], more than 100 µM; in assay [10] it was 78.8 µM; in assay [11], more than 100 µM; in assay [12], more than 100 µM.
As to `Cc1ccc2c(c1)CC1(Cc3cccc(C)c3C1=O)C2=O` (stereo not given), the TGI in assay [1], in [2], in [4], in assay [5], in [6] and in [7] was more than 100 µM throughout. Further, the TGI in [8], in assay [9], in assay [10], in [11] and in assay [12] was more than 100 µM throughout.
Turning to `c1ccc2c3[nH]c(c2c1)=Nc1ccc(cc1)-c1nc2ccc(cc2o1)N=c1[nH]c(c2ccccc12)=Nc1ccc2nc(oc2c1)-c1ccc(cc1)N=3`, the TGI was more than 100 µM in [1]; 35.5 µM in assay [2]; more than 100 µM in assay [3]; more than 100 µM in assay [4]; more than 100 µM in [6]; more than 100 µM in [7]. In addition, the TGI is more than 100 µM in [8]; more than 100 µM in assay [9]; 86.2 µM in [10]; more than 100 µM in assay [11]; 45.5 µM in assay [12].
Regarding `COCCn1cnc2c(Cl)nc(Nc3ccccc3)nc21`, the TGI in [1] was more than 100 µM; in [2], 36.4 µM; in assay [6], 75.6 µM; in [7], more than 100 µM; in assay [8] it was more than 100 µM; in assay [9] it was 34.1 µM. Also, the total growth inhibition concentration (TGI) in [10] and in assay [11] was more than 100 µM each time.
For the molecule `CC(=O)O[C@@]12CO[C@@H]1CC(O)[C@@]1(C)C(=O)[C@H](O)C3=C(C)C(O)C[C@@](O)(C(OC(=O)c4ccccc4)C12)C3(C)C` (stereo not given in full), the TGI is more than 100 µM in [1]; more than 100 µM in assay [2]; more than 100 µM in assay [3]; more than 100 µM in [4]; more than 100 µM in assay [5]; 66 µM in assay [6]. Moreover, the TGI in assay [7] is more than 100 µM; in assay [8], more than 41.9 µM; in [10], more than 100 µM; in [12], more than 100 µM.
Take `Cc1[nH]n(-c2nc(O)c(-c3ccccc3)c(=O)[nH]2)c(=O)c1CCO`: the TGI in assay [1], in assay [2], in [3], in [4], in assay [5] and in assay [6] was more than 100 µM in each case. The TGI in [7], in [8], in assay [10], in [11] and in assay [12] was more than 100 µM in each case.
Regarding `C=C1CC[C@H]2C(=O)OC(c3ccoc3)C[C@]2(C)C/C=C\C=C/1C(=O)OC` (stereo not given in full), the TGI in [1], in assay [2], in [3], in [4], in assay [5] and in [6] was more than 25 µM in each case. Besides, the total growth inhibition concentration (TGI) in [7], in [8], in [9], in assay [11] and in [12] was more than 25 µM throughout.

For the origin of these results see PubChem BioAssay (NCI).
